Assay results reported in article PMC6811436, “Epithelial Lining Fluid and Plasma Concentrations of Dalbavancin in Healthy Adults after a Single 1,500-Milligram Infusion” (Antimicrobial Agents and Chemotherapy, 2019).
Where two headings read alike, the source gives them in different places.

Experiments:
[1] = test system: penicillin-resistant S. pneumoniae; conditions: single dose, rats with lobar pneumonia; cited from earlier work
Description: (§1) Dalbavancin has been used off label for treatment of MRSA pneumonia in a patient treated with vancomycin who ...

S. pneumoniae [2] = conditions: single dose; immunocompetent and neutropenic rats; penicillin-susceptible and penicillin-resistant S. pneumoniae; cited from earlier work
Description: as §1

MRSA = conditions: one patient switched from vancomycin to dalbavancin 1,500 mg; cited from earlier work
Description: as §1

S. pneumoniae [3] = conditions: in vivo, iv
[4] = previously established, cited from earlier work
Description: The bioanalysis was conducted to meet current regulated bioanalysis requirements. The sensitivity, accuracy, precision, recovery, carryover, and matrix effect were established, and study samples were analyzed within established appropriate stabilities to cover sample collection, storage, and analysis. Dalbavancin plasma sample stability has previously been established for 368 days at −20 °C and for 56 days at −70°C. Stability of dalbavancin in HUF was established for 46 days at −70 °C. Plasma (370 samples) and ELF (35 samples; samples for each ELF time point collected on 3 BMS probes and analy ...

S. pneumoniae [5] = test system: S. pneumoniae; design: method as in earlier work; conditions: cited from earlier work
Description: (§2) Dalbavancin is 93% protein bound in plasma ([1]), and the pharmacokinetic/pharmacodynamic (PK/PD) parameter best associated with efficacy is area under the concentratio ...

S. aureus [6] = test system: S. aureus; design: method as in earlier work; conditions: cited from earlier work
Description: as §2

[7] = Safety and tolerability in the phase 1 study; format: in vivo, human; conditions: 37 subjects; 1,500 mg i.v. single dose
Description: Key inclusion criteria were age between 20 and 55 years and body mass index (BMI) between 18 and 30 kg/m^2. […] Subjects were assigned to cohorts on a first-come, first-served basis. Safety data were collected at each visit (screening [days −28 to −3], baseline [days −3 to −1], and days 1, 2, 4, 6, and 8 to 9) and included adverse events, physical examination, chemistry and hematology assessments (screening/baseline, day 8 to 9), and chest X ray (at screening, to exclude subjects with lung disease, and on the day after BMS sampling).

S. aureus [8] = conditions: in vivo, iv
[9] = Epithelial lining fluid (ELF) concentrations by bronchial microsampling after a single 1,500-mg infusion; conditions: for Dalbavancin concn, ELF (median) / Dalbavancin concn, ELF (mean [SD]): 1,500 mg i.v., LC-MS/MS
Description: (§3) A phase 1 open-label, single-dose, safety, tolerability, and PK study of ELF and plasma concentrations of dalbavancin was conducted between May and June 2015 at the SOUSEIKAI Hakata Clinic in Fukuoka, Japan. The study was approved by the local institutional review board at the site. Thirty-seven healthy, nonsmoking Japanese adult subjects received a 1,500-mg dose of dalbavancin infused for 30 ± 2 min. Thirty-five subjects (5 enrolled in each of 7 cohorts) had bronchoscopy with bronchial microsampling of ELF using a microsampling probe (BC-401C; Olympus, Tokyo, Japan), as described previously ([9]), at one of seven time points from the start of dalbavancin infusion (4, 8, 12, 24, 72, 120, and 168 h). Topical lidocaine viscous was used for gargling; 4% lidocaine liquid by aerosol spray was then used for topical anesthesia in the larynx, followed by bronchoscopy, with additional 1% or 2% lidocaine applied to the vocal cords and lower airway as needed. Sedation was allowed per local standard of care. In the BMS procedure, microsampling catheter sponge probes were inserted carefully through a fiberoptic bronchoscope into the peripheral airways of the right lower lobe, with the inner probe gently in contact with the bronchial lumen for 15 s. Three unique probe samples were obtained from each subject for a specific time point. The tips of the probe samples were cut at 3 cm from the tip of each probe, and each time point sample consisted of three probes placed in a vial for analysis. Ten blood PK samples were collected into K2EDTA vacutainers from all 37 subjects up to 168 h postdose (0.5, 1, 2, 4, 8, 12, 24, 72, 120, and 168 h), and plasma was harvested for sample bioanalysis.
(§4) The dalbavancin ELF and plasma concentrations were measured using a validated liquid chromatography-tandem mass spectrometry (LC-MS/MS) method in each matrix ([14]). The bioanalytical methods were validated at Tandem Labs (West Trenton, NJ) under sponsor oversight. (Covance is the brand of Covance, Inc., and used by Tandem Labs, Inc., and NWT, Inc., wholly owned subsidiaries of Laboratory Corporation of America Holdings.) Because ELF can only be collected via invasive techniques, validation of the method in ELF was conducted in a surrogate matrix of human serum ultrafiltrate (HUF).
(§5) The plasma LC-MS/MS method was validated on an API 4000 (Sciex, Framingham, MA) using plasma protein precipitation for sample cleanup before injection for detection of the analytes of interest. Detection was carried out using positive-mode electrospray with selected reaction monitoring for the mass spectrometer operation mode. In plasma, the calibration range was validated from 0.500 to 500 μg/ml using 50 μl plasma for each analysis, with a lower limit of quantification (LLOQ) of 0.500 μg/ml. The ELF LC-MS/MS method was validated on an API 5000 (Sciex) using dilution for sample preparation before analysis. For ELF, the calibration range was validated from 0.010 to 2.00 μg/ml using 75 μl sample volume (study sample[s] consisted of ELF; and standards, blanks, and quality controls consisted of HUF in extraction solvent of 40:60 acetonitrile:water), with an LLOQ of 0.010 μg/ml. Detection was carried out using positive-mode electrospray with selected reaction monitoring for the mass spectrometer operation mode. A structural analog of dalbavancin, diethylamide of dalbavancin, was used as an internal standard in both methods in support of quantitation of dalbavancin.
(§6) Statistical analyses of safety parameters were performed using version 9.3 of SAS (SAS Institute, Inc., Cary, NC) on a LINUX operating system. Noncompartmental PK parameters based on plasma and ELF dalbavancin concentrations were determined for individual subjects, and descriptive statistics were performed using the software program Phoenix WinNonlin (version 6.2; Pharsight Corporation, Cary, NC). Plasma concentrations below the LLOQ were treated as 0 for all PK calculations.

[10] = cited from earlier work
Description: as §2

[11] = cited from earlier work; remark: listed apart in the source
[12] = Plasma pharmacokinetics after a single 1,500-mg i.v. dalbavancin infusion, phase 1 study; conditions: for Dalbavancin concn, calculated unbound plasma (median): 1,500 mg i.v.
Description: as §3, §4, §5, §6

[13] = cited from earlier work; remark: listed apart in the source
Description: This study evaluated the PK of dalbavancin in ELF and plasma up to 7 days after a single 1,500-mg i.v. infusion in healthy Japanese subjects. Dalbavancin was detectable in bronchial ELF at the earliest time point (4 h postdose) and sustained for ≥7 days, exceeding the MIC90s of S. pneumoniae and S. aureus. While drug exposure at the site of infection is essential for antibacterial activity, the PK/PD parameter associated with efficacy for dalbavancin is AUC/MIC ([3]).

[14] = 1,500 mg i.v. single dose, bronchial microsampling
[15] = 8 h, bronchial microsampling, 5 subjects
[16] = 12 h, bronchial microsampling, 5 subjects
[17] = 24 h, bronchial microsampling, 5 subjects
[18] = 72 h, bronchial microsampling, 5 subjects
[19] = 120 h, bronchial microsampling, 5 subjects
[20] = 8 healthy subjects, 1,500 mg dalbavancin, ref Allergan, data on file

In the case of `CN[C@H]1C(=O)N[C@@H]2Cc3ccc(cc3)Oc3cc4cc(c3O[C@@H]3O[C@H](C(=O)O)[C@@H](O)[C@H](O)[C@H]3NC(=O)CCCCCCCCC(C)C)Oc3ccc(cc3Cl)[C@@H](O)[C@@H]3NC(=O)[C@H](NC(=O)[C@@H]4NC(=O)[C@@H](NC2=O)c2cc(cc(O)c2Cl)Oc2cc1ccc2O)c1ccc(O)c(c1)-c1c(O[C@H]2O[C@H](CO)[C@@H](O)[C@H](O)[C@@H]2O)cc(O)cc1[C@@H](C(=O)NCCCN(C)C)NC3=O` [Dalbavancin], the lung bacterial load [1] is listed as “significant reduction in the lung bacterial load”, the “bacterial counts in the lungs” value (S. pneumoniae [2]) is listed as “reduction of bacterial counts observed in the lungs” and the “MRSA in sputum cultures” value (MRSA) is listed as “subsequent clearance of MRSA in sputum cultures”. For the same compound, the “time ELF levels exceeded the MIC90 of S. pneumoniae” value (S. pneumoniae [3]) was ≥ 7 days, the “plasma sample stability established for” value ([4]; −20 °C) was 368 days and the “plasma sample stability established for” value ([4]; −70°C) was 56 days. The “effect of surfactant on in vitro activity” value (S. pneumoniae [5]) was “does not appear to be appreciably affected by the presence of surfactant”, the “effect of surfactant on in vitro activity” value (S. aureus [6]) was “does not appear to be appreciably affected by the presence of surfactant” and the clinical laboratory parameters [7] was “no observed safety concerns in clinical laboratory parameters”. For the same compound, the “serious AEs” value [7] was “no serious AEs”, the “severity of treatment-emergent AEs” value [7] was “all were mild” and the “subjects with at least one treatment-emergent adverse event (AE)” value [7] was “Five”. The “treatment-emergent AEs leading to withdrawal from study-drug therapy” value [7] was “no treatment-emergent AEs leading to withdrawal from study-drug therapy”, the “time ELF levels exceeded the MIC90 of S. aureus” value (S. aureus [8]) was ≥ 7 days and the “ELF AUC0–168 (median)” value [9, 14] was 527 µg·h/mL. For the same compound, the “ELF Cmax (median)” value [9, 14] was 4 µg/mL, the “ELF Tmax (median)” value [9, 14] was 72 h and the “Dalbavancin concn, ELF (median)” value ([9]; 4 h, bronchial microsampling, 5 subjects per time point) was 1.9 µg/mL. The “Dalbavancin concn, ELF (mean [SD])” value ([9]; 4 h, bronchial microsampling, 5 subjects) was 1.9 (1.0) μg/ml, the “Dalbavancin concn, ELF (mean [SD])” value [9, 15] was 3.1 (1.9) μg/ml and the “Dalbavancin concn, ELF (median)” value [9, 15] was 2.2 µg/mL. For the same compound, the “Dalbavancin concn, ELF (mean [SD])” value [9, 16] was 3.6 (2.1) μg/ml, the “Dalbavancin concn, ELF (median)” value [9, 16] was 2.8 µg/mL and the “Dalbavancin concn, ELF (mean [SD])” value [9, 17] was 2.7 (0.5) μg/ml. For the same compound, the “Dalbavancin concn, ELF (median)” value [9, 17] was 2.6 µg/mL, the “Dalbavancin concn, ELF (mean [SD])” value [9, 18] was 7.3 (8.2) μg/ml and the “Dalbavancin concn, ELF (median)” value [9, 18] was 4.2 µg/mL. For the same compound, the “Dalbavancin concn, ELF (mean [SD])” value [9, 19] was 11.9 (20.1) μg/ml, the “Dalbavancin concn, ELF (median)” value [9, 19] was 3.3 µg/mL and the “Dalbavancin concn, ELF (median)” value ([9]; 168 h (7 days), bronchial microsampling, 5 subjects) was 2.1 µg/mL. The “Dalbavancin concn, ELF (mean [SD])” value ([9]; 168 h, bronchial microsampling, 5 subjects) was 2.0 (0.6) μg/ml, the “penetration of dalbavancin into ELF” value ([9]; ratio of AUC in ELF to unbound AUC in plasma (7% of AUC0–168)) was 36% and the “protein bound in plasma” value [10] was 93%. The terminal half-life [10] was 14.4 days, the “time plasma concentrations maintained above the MIC90 for most Gram-positive pathogens, including S. aureus” value ([10]; single dose of 1,500 mg i.v.) was “at least 2 weeks” and the solubility in saline [11] was “not soluble in saline”. The “plasma AUC0–168, mean (SD)” value ([12]; 1,500 mg i.v. single dose, noncompartmental) was 21,087 (2,282) μg · h/ml, the “Dalbavancin concn, calculated unbound plasma (median)” value ([12]; 4 h, calculated with 93% protein binding (unbound fraction 7%)) was 20 µg/mL and the “Dalbavancin concn, calculated unbound plasma (median)” value ([12]; 8 h, calculated with unbound fraction 7%) was 16 µg/mL. The “Dalbavancin concn, calculated unbound plasma (median)” value ([12]; 12 h, calculated with unbound fraction 7%) was 14 µg/mL, the “Dalbavancin concn, calculated unbound plasma (median)” value ([12]; 24 h, calculated with unbound fraction 7%) was 12 µg/mL and the “Dalbavancin concn, calculated unbound plasma (median)” value ([12]; 72 h, calculated with unbound fraction 7%) was 8 µg/mL. For the same compound, the “Dalbavancin concn, calculated unbound plasma (median)” value ([12]; 120 h, calculated with unbound fraction 7%) was 7 µg/mL, the “Dalbavancin concn, calculated unbound plasma (median)” value ([12]; 168 h, calculated with unbound fraction 7%) was 6 µg/mL and the Tmax ([12]; human, in vivo, iv) was 30 min. It also gave a clearance ([12]; human, in vivo, iv) of 0.683 mL/min, a level at 0.5 h ([12]; human, in vivo, iv, 1500 mg) of 442 µg/mL and a level at 1 h ([12]; human, in vivo, iv, 1500 mg) of 397 µg/mL. It also gave a level at 2 h ([12]; human, in vivo, iv, 1500 mg) of 331 µg/mL, a level at 8 h ([12]; human, in vivo, iv, 1500 mg) of 222 µg/mL and a level at 12 h ([12]; human, in vivo, iv, 1500 mg) of 194 µg/mL. It also gave a level at 24 h ([12]; human, in vivo, iv, 1500 mg) of 169 µg/mL, a level at 72 h ([12]; human, in vivo, iv, 1500 mg) of 120 µg/mL and a level at 120 h ([12]; human, in vivo, iv, 1500 mg) of 94 µg/mL. For the same compound, the “plasma AUC0–24, mean (SD)” value [13, 20] was 5,202.55 (620.05) μg · h/ml, the “plasma Cmax, mean (SD)” value [13, 20] was 467.63 (55.73) μg/ml and the “mean Tmax” value ([13]; 8 healthy subjects, 1,500 mg, range 0.5 to 0.5, ref Allergan, data on file) was 30 min. The “median Tmax” value ([13]; 49 subjects, 1,500 mg dalbavancin) was 37.2 min.
